Values quoted from earlier work, collected in patent US20120195873A1, “METHODS OF A[…] LOSS OF […]” (NESTEC S.A., priority 2009, published 2012).

Experiments:
[1] = 400 mg twice daily; heavy exercise, calcium loss through sweat
skeletal muscle [2] = details: vitamin D deficient rats
type II muscle fibers = details: vitamin D deficient patients, pre- vs post-supplementation
[3] = tested on: lower extremity muscle performance; details: elderly; amounts bringing mean serum 25-OH Vitamin D to 66-84 nmol/L
skeletal muscle [4] = details: animal data, exogenous 25-OH

O=C([O-])[O-].[Ca+2] [calcium carbonate]
offset of exercise-induced net calcium loss [1]: sufficient to offset this loss

vitamin D
muscle mass (skeletal muscle [2]): increased muscle mass
rate of myofibrillar protein degradation (skeletal muscle [2]): decreased rate of myofibrillar protein degradation
weight gain (skeletal muscle [2]): weight gain
atrophy of type II muscle fibers in biopsies (type II muscle fibers): significant improvements were observed post-supplementation
lower extremity muscle performance [3]: improves lower extremity muscle performance

25-Hydroxy Vitamin D [25-OH]
skeletal muscle protein synthesis (skeletal muscle [4]): increases skeletal muscle protein synthesis
